pEC50: −log10 of the molar value. Read-outs that look alike come from different tables or passages of the source.
What was measured:
[1] = system: SZ95 sebocytes; test: Sentinel Lipid Assay (SLA), desaturation index in SZ95 sebocytes; assay type: cell-based; settings: Homo sapiens, 72 h; for pEC50: desaturation index, lowest dose used 4.6 nM, read-out: SLA EC50
In short: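 SZ95 human sebocytes on fibronectin-coated plates, dosed 72 h at 37 °C with 1:3 dilutions from 10 μM; lipids extracted with deuterated triglyceride internal standards and quantified by LC-MS/MS (MRM) as 11 sentinel lipids. Desaturation index from elastic-net coefficients, normalized to DMSO; Amax relative to a reference LXR agonist.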

[2] = system: SCD1; test: Measurement of SCD1 expression in SZ95-SCD1-HiBit cells (HiBiT assay); assay type: cell-based; settings: Homo sapiens, 48 h; for pEC50: SCD1 protein production, luminescence, initial dilution 1:3 in DMSO, read-out: HiBit EC50
[3] = normalized Amax based on the reference compound Amax of 100%, read-out: SLA Normalized Amax
[4] = SZ95 cells, compared to reference compound, read-out: SLA Amax
[5] = normalized Amax based on the reference compound Amax of 100%, read-out: HiBit Normalized Amax
[6] = SZ95-SCD1-HiBit cells, compared to reference compound, read-out: HiBit Amax

## CC1(C)C(=O)N(Cc2nc(-c3ccc(Oc4ccccc4S(=O)(=O)C4CC(O)C4)c(C(F)(F)F)c3)no2)C(=O)N1CCN1CCOCC1 (stereo not drawn) [Compound 39, 3-((3-(4-(2-((3-hydroxycyclobutyl)sulfonyl)phenoxy)-3-(trifluoromethyl)phenyl)-1,2,4-oxadiazol-5-yl)methyl)-5,5-dimethyl-1-(2-morpholinoethyl)imidazolidine-2,4-dione]
[1]; [3]
  Emax: 170%
[1]; SZ95 cells
  pEC50: ≥ 8.34
[1]; [4]
  Emax: 164%
[2]; [5]
  Emax: 93.9%
[2]; SZ95-SCD1-HiBit cells
  pEC50: 8.85
[2]; [6]
  Emax: 89.3%

## CC1(C)C(=O)N(Cc2nc(-c3ccc(Oc4ccccc4S(=O)(=O)CC4CCCOC4)c(C(F)(F)F)c3)no2)C(=O)N1CCN1CCOCC1 (stereo not drawn) [Compound 40, 5,5-dimethyl-1-(2-morpholinoethyl)-3-((3-(4-(2-(((tetrahydro-2H-pyran-3-yl)methyl)sulfonyl)phenoxy)-3-(trifluoromethyl)phenyl)-1,2,4-oxadiazol-5-yl)methyl)imidazolidine-2,4-dione]
[1]; [3]
  Emax: 168%
[1]; SZ95 cells
  pEC50: ≥ 8.34
[1]; [4]
  Emax: 161%
[2]; [5]
  Emax: 74.7%
[2]; SZ95-SCD1-HiBit cells
  pEC50: 8.15
[2]; [6]
  Emax: 71%

## CC1(C)C(=O)N(Cc2nc(-c3ccc(Oc4ccccc4C(F)(F)F)c(C(F)(F)F)c3)no2)C(=O)N1CCN1CCOCC1 [Compound 41, 5,5-dimethyl-1-(2-morpholinoethyl)-3-((3-(3-(trifluoromethyl)-4-(2-(trifluoromethyl)phenoxy)phenyl)-1,2,4-oxadiazol-5-yl)methyl)imidazolidine-2,4-dione]
[1]; [3]
  Emax: 92.2%
[1]; SZ95 cells
  pEC50: ≥ 8.34
[1]; [4]
  Emax: 88.5%
[2]; [5]
  Emax: 93%
[2]; SZ95-SCD1-HiBit cells
  pEC50: 9.78
[2]; [6]
  Emax: 88.4%

## CC1(C)C(=O)N(Cc2nc(-c3ccc(OCC(C)(C(F)(F)F)C(F)(F)F)c(C(F)(F)F)c3)no2)C(=O)N1CCN1CCOCC1 [Compound 42, 5,5-dimethyl-1-(2-morpholinoethyl)-3-((3-(4-(3,3,3-trifluoro-2-methyl-2-(trifluoromethyl)propoxy)-3-(trifluoromethyl)phenyl)-1,2,4-oxadiazol-5-yl)methyl)imidazolidine-2,4-dione]
[1]; [3]
  Emax: 157%
[1]; SZ95 cells
  pEC50: ≥ 8.34
[1]; [4]
  Emax: 150%
[2]; [5]
  Emax: 86.1%
[2]; SZ95-SCD1-HiBit cells
  pEC50: 8.82
[2]; [6]
  Emax: 81.9%

## CC(CS(=O)(=O)c1ccccc1Oc1ccc(-c2noc(CN3C(=O)N(CCN4CCOCC4)C(C)(C)C3=O)n2)cc1C(F)(F)F)N1CCCC1 (stereo not drawn) [Compound 43, 5,5-dimethyl-1-(2-morpholinoethyl)-3-((3-(4-(2-((2-(pyrrolidin-1-yl)propyl)sulfonyl)phenoxy)-3-(trifluoromethyl)phenyl)-1,2,4-oxadiazol-5-yl)methyl)imidazolidine-2,4-dione]
[1]; [3]
  Emax: 147%
[1]; SZ95 cells
  pEC50: ≥ 8.34
[1]; [4]
  Emax: 141%
[2]; [5]
  Emax: 84.1%
[2]; SZ95-SCD1-HiBit cells
  pEC50: 8.94
[2]; [6]
  Emax: 80%

## CC(C)CS(=O)(=O)c1ccccc1Oc1ccc(-c2noc(CN3C(=O)CN(CCN4CCOCC4)C3=O)n2)cc1C(F)(F)F [Compound 44, 3-((3-(4-(2-(isobutylsulfonyl)phenoxy)-3-(trifluoromethyl)phenyl)-1,2,4-oxadiazol-5-yl)methyl)-1-(2-morpholinoethyl)imidazolidine-2,4-dione]
[1]; [3]
  Emax: 86.4%
[1]; SZ95 cells
  pEC50: ≥ 8.34
[1]; [4]
  Emax: 82.9%
[2]; [5]
  Emax: 77%
[2]; SZ95-SCD1-HiBit cells
  pEC50: 8.18
[2]; [6]
  Emax: 73.2%

## CC(C)CS(=O)(=O)c1ccccc1Oc1ccc(-c2noc(CN3C(=O)N(CCN4CCOCC4)C4(CCC4)C3=O)n2)cc1C(F)(F)F [Compound 45, 7-((3-(4-(2-(isobutylsulfonyl)phenoxy)-3-(trifluoromethyl)phenyl)-1,2,4-oxadiazol-5-yl)methyl)-5-(2-morpholinoethyl)-5,7-diazaspiro[3.4]octane-6,8-dione]
[1]; [3]
  Emax: 162%
[1]; SZ95 cells
  pEC50: ≥ 8.34
[1]; [4]
  Emax: 155%
[2]; [5]
  Emax: 94.2%
[2]; SZ95-SCD1-HiBit cells
  pEC50: 8.60
[2]; [6]
  Emax: 89.6%

## CC(C)CS(=O)(=O)c1ccccc1Oc1ccc(-c2noc(CN3C(=O)N(CCN4CCOCC4)C(C)(CO)C3=O)n2)cc1C(F)(F)F (stereo not drawn) [Compound 46, 5-(hydroxymethyl)-3-((3-(4-(2-(isobutylsulfonyl)phenoxy)-3-(trifluoromethyl)phenyl)-1,2,4-oxadiazol-5-yl)methyl)-5-methyl-1-(2-morpholinoethyl)imidazolidine-2,4-dione]
[1]; [3]
  Emax: 170%
[1]; SZ95 cells
  pEC50: ≥ 8.34
[1]; [4]
  Emax: 163%
[2]; [5]
  Emax: 98%
[2]; SZ95-SCD1-HiBit cells
  pEC50: 8.22
[2]; [6]
  Emax: 93.2%

## O=C1N(Cc2nc(-c3ccc(Oc4ccccc4S(=O)(=O)CC(F)(F)F)c(C(F)(F)F)c3)no2)C(=O)C2(CCN(C3CCC3)CC2)N1CCN1CCOCC1 [Compound 47, 8-cyclobutyl-1-(2-morpholinoethyl)-3-((3-(4-(2-((2,2,2-trifluoroethyl)sulfonyl)phenoxy)-3-(trifluoromethyl)phenyl)-1,2,4-oxadiazol-5-yl)methyl)-1,3,8-triazaspiro[4.5]decane-2,4-dione]
[1]; [3]
  Emax: 147%
[1]; SZ95 cells
  pEC50: ≥ 8.34
[1]; [4]
  Emax: 142%
[2]; [5]
  Emax: 80.5%
[2]; SZ95-SCD1-HiBit cells
  pEC50: 9.14
[2]; [6]
  Emax: 76.6%

## O=C1N(Cc2nc(-c3ccc(Oc4ccccc4S(=O)(=O)CC(F)(F)F)c(C(F)(F)F)c3)no2)C(=O)C2(CCN(C3CCC3)CC2)N1CCC1CCOCC1 [Compound 48, 8-cyclobutyl-1-(2-(tetrahydro-2H-pyran-4-yl)ethyl)-3-((3-(4-(2-((2,2,2-trifluoroethyl)sulfonyl)phenoxy)-3-(trifluoromethyl)phenyl)-1,2,4-oxadiazol-5-yl)methyl)-1,3,8-triazaspiro[4.5]decane-2,4-dione]
[1]; [3]
  Emax: 125%
[1]; SZ95 cells
  pEC50: ≥ 8.34
[1]; [4]
  Emax: 120%
[2]; [5]
  Emax: 93.5%
[2]; SZ95-SCD1-HiBit cells
  pEC50: 10.28
[2]; [6]
  Emax: 88.9%

## CC(C)CS(=O)(=O)c1ccccc1Oc1ccc(-c2noc(CN3C(=O)N(CCN4CCOCC4)C(C)(C)C3=O)n2)cc1Cl [Compound 49, 3-((3-(3-chloro-4-(2-(isobutylsulfonyl)phenoxy)phenyl)-1,2,4-oxadiazol-5-yl)methyl)-5,5-dimethyl-1-(2-morpholinoethyl)imidazolidine-2,4-dione]
[1]; [3]
  Emax: 114%
[1]; SZ95 cells
  pEC50: 7.39
[1]; [4]
  Emax: 110%
[2]; [5]
  Emax: 74.6%
[2]; SZ95-SCD1-HiBit cells
  pEC50: 7.92
[2]; [6]
  Emax: 70.9%

## CC(C)CS(=O)(=O)c1ccccc1Oc1ccc(-c2noc(CN3C(=O)N(CCCN4CCCC4)C(C)(C)C3=O)n2)cc1C(F)(F)F [Compound 50b, 3-((3-(4-(2-(isobutylsulfonyl)phenoxy)-3-(trifluoromethyl)phenyl)-1,2,4-oxadiazol-5-yl)methyl)-5,5-dimethyl-1-(3-(pyrrolidin-1-yl)propyl)imidazolidine-2,4-dione]
[1]; [3]
  Emax: 60.6%
[1]; SZ95 cells
  pEC50: 7.63
[1]; [4]
  Emax: 58.2%
[2]; [5]
  Emax: 67.1%
[2]; SZ95-SCD1-HiBit cells
  pEC50: 7.53
[2]; [6]
  Emax: 63.8%

## CC(C)CS(=O)(=O)c1ccccc1Oc1ccc(-c2noc(CN3C(=O)N(Cc4ccccn4)C(C)(C)C3=O)n2)cc1C(F)(F)F [Compound 51, 3-((3-(4-(2-(isobutylsulfonyl)phenoxy)-3-(trifluoromethyl)phenyl)-1,2,4-oxadiazol-5-yl)methyl)-5,5-dimethyl-1-(pyridin-2-ylmethyl)imidazolidine-2,4-dione]
[1]; [3]
  Emax: 120%
[1]; SZ95 cells
  pEC50: ≥ 8.34
[1]; [4]
  Emax: 116%
[2]; [5]
  Emax: 88.7%
[2]; SZ95-SCD1-HiBit cells
  pEC50: 7.91
[2]; [6]
  Emax: 84.4%

## CC(O)CS(=O)(=O)c1ccccc1Oc1ccc(-c2noc(CN3C(=O)N(CCN4CCOCC4)C(C)(C)C3=O)n2)cc1C(F)(F)F (stereo not drawn) [Compound 52, 3-((3-(4-(2-((2-hydroxypropyl)sulfonyl)phenoxy)-3-(trifluoromethyl)phenyl)-1,2,4-oxadiazol-5-yl)methyl)-5,5-dimethyl-1-(2-morpholinoethyl)imidazolidine-2,4-dione]
[1]; [3]
  Emax: 119%
[1]; SZ95 cells
  pEC50: ≥ 8.34
[1]; [4]
  Emax: 114%
[2]; [5]
  Emax: 79.5%
[2]; SZ95-SCD1-HiBit cells
  pEC50: 8.54
[2]; [6]
  Emax: 75.6%

## CC1(C)C(=O)N(Cc2nc(-c3ccc(Oc4ccccc4S(=O)(=O)CC4CCCCO4)c(C(F)(F)F)c3)no2)C(=O)N1CCN1CCOCC1 (stereo not drawn) [Compound 53, 5,5-dimethyl-1-(2-morpholinoethyl)-3-((3-(4-(2-(((tetrahydro-2H-pyran-2-yl)methyl)sulfonyl)phenoxy)-3-(trifluoromethyl)phenyl)-1,2,4-oxadiazol-5-yl)methyl)imidazolidine-2,4-dione]
[1]; [3]
  Emax: 146%
[1]; SZ95 cells
  pEC50: ≥ 8.34
[1]; [4]
  Emax: 140%
[2]; [5]
  Emax: 101%
[2]; SZ95-SCD1-HiBit cells
  pEC50: 9.58
[2]; [6]
  Emax: 96.2%

## COCCS(=O)(=O)c1ccccc1Oc1ccc(-c2noc(CN3C(=O)N(CC4CC4)C(C)(C)C3=O)n2)cc1C(F)(F)F [Compound 54, 1-(cyclopropylmethyl)-3-((3-(4-(2-((2-methoxyethyl)sulfonyl)phenoxy)-3-(trifluoromethyl)phenyl)-1,2,4-oxadiazol-5-yl)methyl)-5,5-dimethylimidazolidine-2,4-dione]
[1]; [3]
  Emax: 157%
[1]; SZ95 cells
  pEC50: ≥ 8.34
[1]; [4]
  Emax: 151%
[2]; [5]
  Emax: 84.9%
[2]; SZ95-SCD1-HiBit cells
  pEC50: 8.41
[2]; [6]
  Emax: 80.7%

## CC1(C)C(=O)N(Cc2nc(-c3ccc(Oc4ccccc4S(C)(=O)=O)c(C(F)(F)F)c3)no2)C(=O)N1CCN1CCOCC1 [Compound 55, 5,5-dimethyl-3-((3-(4-(2-(methylsulfonyl)phenoxy)-3-(trifluoromethyl)phenyl)-1,2,4-oxadiazol-5-yl)methyl)-1-(2-morpholinoethyl)imidazolidine-2,4-dione]
[1]; [3]
  Emax: 161%
[1]; SZ95 cells
  pEC50: ≥ 8.34
[1]; [4]
  Emax: 154%
[2]; [5]
  Emax: 91.6%
[2]; SZ95-SCD1-HiBit cells
  pEC50: 8.35
[2]; [6]
  Emax: 87.1%
